Measured values: ChEMBL document CHEMBL1201862, “PubChem BioAssay data set” (2004)
Calls of active or inactive are those of the source.

What was measured:
Large T antigen = Large T antigen (Simian virus 40, UniProt P03070); type: functional, Betapolyomavirus macacae;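 also: Confirmatory-stage PubChem screen for compounds that inhibit SV40 T antigen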
Cytochrome P450 2C9 = Cytochrome P450 2C9 (Homo sapiens, UniProt P11712)
Cytochrome P450 1A2 = biological target: T1, Cytochrome P450 1A2 (Homo sapiens, UniProt P05177);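 also: PubChem cytochrome P450 panel assay, CYP1A2 panel member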
T1 sequence (P05177 whole entry): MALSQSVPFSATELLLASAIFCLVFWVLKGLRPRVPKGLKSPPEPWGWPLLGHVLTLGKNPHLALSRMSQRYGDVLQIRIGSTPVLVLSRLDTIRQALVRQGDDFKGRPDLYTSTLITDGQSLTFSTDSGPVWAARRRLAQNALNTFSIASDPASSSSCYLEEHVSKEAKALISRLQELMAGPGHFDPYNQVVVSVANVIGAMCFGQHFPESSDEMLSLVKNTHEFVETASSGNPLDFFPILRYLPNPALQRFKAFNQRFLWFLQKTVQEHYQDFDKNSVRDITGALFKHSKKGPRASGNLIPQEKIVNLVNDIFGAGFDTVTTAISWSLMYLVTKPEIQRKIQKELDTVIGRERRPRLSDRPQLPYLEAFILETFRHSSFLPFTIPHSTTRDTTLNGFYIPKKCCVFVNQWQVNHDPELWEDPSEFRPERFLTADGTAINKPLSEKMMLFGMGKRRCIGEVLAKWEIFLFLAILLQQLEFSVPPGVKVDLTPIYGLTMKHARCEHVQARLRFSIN

[1] = biological target: T2, Corticotropin-releasing factor receptor 2/Corticotropin-releasing factor-binding protein (Homo sapiens, UniProt P24387+Q13324); test: activators of CRF receptor 2 with binding protein – uHTS hits, confirmation (AID 602473); type: functional; conditions: read-out: EC50_Mean
T2 sequence (Q13324 whole entry): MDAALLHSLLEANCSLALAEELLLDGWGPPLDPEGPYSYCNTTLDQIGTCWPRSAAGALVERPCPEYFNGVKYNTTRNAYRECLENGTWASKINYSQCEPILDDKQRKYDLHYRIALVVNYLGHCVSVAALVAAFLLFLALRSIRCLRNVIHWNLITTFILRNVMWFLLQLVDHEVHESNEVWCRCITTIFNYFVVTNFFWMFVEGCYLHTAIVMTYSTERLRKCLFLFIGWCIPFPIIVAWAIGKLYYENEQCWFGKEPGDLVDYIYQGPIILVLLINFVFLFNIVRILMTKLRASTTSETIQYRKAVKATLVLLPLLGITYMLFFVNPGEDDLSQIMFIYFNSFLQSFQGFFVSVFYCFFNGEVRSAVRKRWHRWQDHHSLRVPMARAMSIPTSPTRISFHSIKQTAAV
T2 sequence (P24387 whole entry): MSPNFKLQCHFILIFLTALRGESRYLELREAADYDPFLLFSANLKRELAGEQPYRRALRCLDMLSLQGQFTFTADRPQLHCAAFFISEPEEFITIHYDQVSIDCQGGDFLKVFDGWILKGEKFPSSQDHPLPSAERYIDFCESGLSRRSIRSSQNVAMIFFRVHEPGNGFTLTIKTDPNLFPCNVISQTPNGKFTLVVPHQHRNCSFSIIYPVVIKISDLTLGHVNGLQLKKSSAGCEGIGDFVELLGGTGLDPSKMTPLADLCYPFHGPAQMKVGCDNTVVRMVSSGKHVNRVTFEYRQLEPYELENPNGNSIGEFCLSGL

[2] = biological target: T2, Corticotropin-releasing factor receptor 2/Corticotropin-releasing factor-binding protein; test: Dose Response confirmation of uHTS hits for small molecule antagonists of the CRF-binding protein and CRF-R2 receptor complex.; type: functional; conditions: read-out: IC50_Mean
[3] = biological target: FAD-linked sulfhydryl oxidase ALR (Homo sapiens, UniProt P55789); test: inhibitors of human ALR sulfhydryl oxidase, dose response, biochemical, H2O2 detection, luminescence, cherry-pick (AID 493248)
Chain of FAD-linked sulfhydryl oxidase ALR (P55789 whole entry): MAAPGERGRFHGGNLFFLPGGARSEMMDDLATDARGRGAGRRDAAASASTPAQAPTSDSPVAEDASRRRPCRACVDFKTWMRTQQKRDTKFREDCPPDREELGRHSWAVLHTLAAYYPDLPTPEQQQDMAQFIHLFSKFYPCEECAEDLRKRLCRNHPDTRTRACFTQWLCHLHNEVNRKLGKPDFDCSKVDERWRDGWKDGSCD

Vero = test: cells; type: functional; conditions: Chlorocebus sabaeus
Nonstructural protein 1 = Nonstructural protein 1 (Influenza A virus, UniProt Q194T2); type: functional, Influenza A virus (A/California/07/2009(H1N1))
Chain of Nonstructural protein 1 (Q194T2 whole entry): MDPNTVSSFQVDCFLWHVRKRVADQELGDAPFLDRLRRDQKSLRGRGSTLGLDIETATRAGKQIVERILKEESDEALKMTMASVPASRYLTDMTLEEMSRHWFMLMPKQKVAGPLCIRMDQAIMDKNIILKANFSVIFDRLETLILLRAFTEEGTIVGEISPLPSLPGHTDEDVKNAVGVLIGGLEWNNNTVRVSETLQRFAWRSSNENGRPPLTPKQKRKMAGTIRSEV

[4] = inhibitors of intracellular T. cruzi replication, confirmation, NIH3T3 host cells, beta-gal luminescence (AID 2044); type: functional, cell-based;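 also: intracellular parasites grown in NIH/3T3 mouse fibroblasts as host cells; luminescent beta-galactosidase reporter signal from transgenic T. cruzi replicating inside host cells; inhibitors lower the luminescence signal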
[5] = cytotoxicity toward NIH3T3 fibroblasts, dose response, counter-screen, cell-based, ATP luminescence, mouse fibroblasts (AID 2010); type: functional;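 also: cells exposed to compound for about 90 hours before reading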
cells [6] = type: functional, cell-based
cells [7] = type: functional, cell-based; remark: listed apart in the source
[8] = biological target: Heat shock protein HSP 90-alpha (Homo sapiens, UniProt P07900); type: functional, organism-based
[9] = biological target: T3, RNA-binding protein pos-1 (Caenorhabditis elegans, UniProt G5EF15); test: inhibitors of POS-1/mex-3 RNA binding, dose response, biochemical, fluorescence polarization (AID 1964);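 also: purified POS-1 fused to maltose binding protein made in E. coli; potency of compounds blocking POS-1 binding to fluorescent RNA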
T3 sequence (G5EF15 whole entry): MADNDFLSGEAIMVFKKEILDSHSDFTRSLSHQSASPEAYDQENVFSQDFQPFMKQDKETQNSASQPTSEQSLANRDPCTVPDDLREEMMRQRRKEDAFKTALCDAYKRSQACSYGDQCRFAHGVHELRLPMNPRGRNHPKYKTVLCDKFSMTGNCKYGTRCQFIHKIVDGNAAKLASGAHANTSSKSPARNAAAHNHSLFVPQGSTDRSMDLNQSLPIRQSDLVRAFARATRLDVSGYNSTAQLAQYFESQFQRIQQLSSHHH

[10] = biological target: T4, Zinc finger protein mex-5 (Caenorhabditis elegans, UniProt Q9XUB2); test: MEX-5/TCR-2 RNA interaction inhibitors, dose response, biochemical, C. elegans, fluorescence polarization (AID 1960)
T4 sequence (Q9XUB2 whole entry): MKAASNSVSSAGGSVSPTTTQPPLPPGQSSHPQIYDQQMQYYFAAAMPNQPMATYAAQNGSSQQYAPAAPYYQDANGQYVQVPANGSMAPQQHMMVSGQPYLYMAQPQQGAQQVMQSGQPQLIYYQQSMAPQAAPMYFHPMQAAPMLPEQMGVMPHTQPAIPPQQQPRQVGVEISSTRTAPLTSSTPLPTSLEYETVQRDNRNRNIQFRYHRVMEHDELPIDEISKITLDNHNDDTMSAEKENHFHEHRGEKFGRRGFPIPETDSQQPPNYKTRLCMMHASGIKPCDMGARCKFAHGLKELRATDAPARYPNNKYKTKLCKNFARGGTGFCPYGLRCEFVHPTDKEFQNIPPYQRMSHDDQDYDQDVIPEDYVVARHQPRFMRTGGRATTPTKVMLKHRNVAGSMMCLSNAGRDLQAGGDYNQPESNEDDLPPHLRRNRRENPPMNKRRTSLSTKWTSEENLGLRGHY

Estrogen receptor = biological target: T5, Estrogen receptor (Homo sapiens, UniProt P03372);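 also: potency for inhibiting coactivator peptide recruitment to the receptor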
T5 sequence (P03372 whole entry): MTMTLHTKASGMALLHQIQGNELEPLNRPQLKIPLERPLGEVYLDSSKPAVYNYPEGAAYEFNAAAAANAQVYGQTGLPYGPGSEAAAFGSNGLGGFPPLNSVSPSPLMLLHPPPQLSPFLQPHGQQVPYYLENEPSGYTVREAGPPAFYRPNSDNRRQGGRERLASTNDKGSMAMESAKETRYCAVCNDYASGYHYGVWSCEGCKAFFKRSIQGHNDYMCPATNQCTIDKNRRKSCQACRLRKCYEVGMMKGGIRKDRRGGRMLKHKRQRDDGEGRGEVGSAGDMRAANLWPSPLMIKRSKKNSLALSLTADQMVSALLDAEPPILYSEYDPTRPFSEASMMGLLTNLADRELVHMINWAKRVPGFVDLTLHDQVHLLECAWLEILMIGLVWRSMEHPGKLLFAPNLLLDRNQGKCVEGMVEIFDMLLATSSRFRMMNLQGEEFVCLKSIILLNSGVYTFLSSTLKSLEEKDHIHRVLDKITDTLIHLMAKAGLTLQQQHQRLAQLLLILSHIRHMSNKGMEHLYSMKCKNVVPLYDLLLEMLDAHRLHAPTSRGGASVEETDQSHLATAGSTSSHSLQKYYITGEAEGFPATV

Cytochrome P450 2C19 = Cytochrome P450 2C19 (Homo sapiens, UniProt P33261); test: Cytochrome panel assay with activity outcomes. Panel member name: p450-cyp2c19 Compounds with AC50 equal or less than 10 uM are considered active; type: functional; conditions: read-out: AC50
Chain of Cytochrome P450 2C19 (P33261 whole entry): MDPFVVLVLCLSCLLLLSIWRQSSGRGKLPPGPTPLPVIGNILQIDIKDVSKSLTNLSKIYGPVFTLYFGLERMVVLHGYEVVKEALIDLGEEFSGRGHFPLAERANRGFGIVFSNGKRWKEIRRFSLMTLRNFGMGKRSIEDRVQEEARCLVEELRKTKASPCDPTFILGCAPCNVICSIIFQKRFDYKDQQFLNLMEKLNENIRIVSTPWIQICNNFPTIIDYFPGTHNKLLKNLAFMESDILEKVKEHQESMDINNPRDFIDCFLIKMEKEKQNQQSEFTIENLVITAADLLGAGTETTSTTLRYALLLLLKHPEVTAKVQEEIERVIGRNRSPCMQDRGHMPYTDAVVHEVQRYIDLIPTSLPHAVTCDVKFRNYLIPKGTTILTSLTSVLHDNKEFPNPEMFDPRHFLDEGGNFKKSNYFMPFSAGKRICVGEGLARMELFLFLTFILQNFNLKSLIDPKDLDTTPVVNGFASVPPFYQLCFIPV

Cytochrome P450 2D6 = Cytochrome P450 2D6 (Homo sapiens, UniProt P10635);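 also: CYP2D6 member of a cytochrome P450 panel assay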
Chain of Cytochrome P450 2D6 (P10635 whole entry): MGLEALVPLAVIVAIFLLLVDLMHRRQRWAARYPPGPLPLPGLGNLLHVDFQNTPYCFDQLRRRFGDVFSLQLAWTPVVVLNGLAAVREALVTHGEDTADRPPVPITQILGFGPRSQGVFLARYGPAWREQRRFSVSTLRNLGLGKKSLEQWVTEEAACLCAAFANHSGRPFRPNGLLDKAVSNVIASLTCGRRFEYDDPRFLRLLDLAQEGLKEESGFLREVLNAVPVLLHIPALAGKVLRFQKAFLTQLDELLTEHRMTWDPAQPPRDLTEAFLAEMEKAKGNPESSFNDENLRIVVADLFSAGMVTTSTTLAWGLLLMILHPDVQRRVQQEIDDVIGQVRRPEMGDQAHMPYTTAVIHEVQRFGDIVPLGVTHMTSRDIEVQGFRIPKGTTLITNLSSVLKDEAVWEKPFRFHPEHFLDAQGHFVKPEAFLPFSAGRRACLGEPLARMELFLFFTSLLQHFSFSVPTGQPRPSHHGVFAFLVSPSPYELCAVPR

Chain of Large T antigen (P03070 whole entry): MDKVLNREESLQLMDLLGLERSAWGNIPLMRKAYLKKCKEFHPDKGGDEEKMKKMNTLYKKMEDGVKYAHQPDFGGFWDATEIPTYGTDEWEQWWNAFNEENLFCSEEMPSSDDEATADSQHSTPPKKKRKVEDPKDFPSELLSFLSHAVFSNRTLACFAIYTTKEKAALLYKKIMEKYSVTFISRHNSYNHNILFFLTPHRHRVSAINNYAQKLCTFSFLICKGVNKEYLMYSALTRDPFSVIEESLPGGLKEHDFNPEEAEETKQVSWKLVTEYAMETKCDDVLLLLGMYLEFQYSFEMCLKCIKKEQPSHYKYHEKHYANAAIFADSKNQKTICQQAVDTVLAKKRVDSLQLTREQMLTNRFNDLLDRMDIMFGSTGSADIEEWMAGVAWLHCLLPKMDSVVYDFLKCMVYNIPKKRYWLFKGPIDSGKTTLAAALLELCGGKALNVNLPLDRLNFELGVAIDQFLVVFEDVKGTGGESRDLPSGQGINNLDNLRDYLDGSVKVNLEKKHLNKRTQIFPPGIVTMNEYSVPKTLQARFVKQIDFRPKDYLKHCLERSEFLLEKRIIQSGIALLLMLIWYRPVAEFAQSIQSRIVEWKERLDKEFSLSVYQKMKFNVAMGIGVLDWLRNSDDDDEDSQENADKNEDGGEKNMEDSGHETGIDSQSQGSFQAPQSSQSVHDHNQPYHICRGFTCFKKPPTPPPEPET
Chain of Cytochrome P450 2C9 (P11712 whole entry): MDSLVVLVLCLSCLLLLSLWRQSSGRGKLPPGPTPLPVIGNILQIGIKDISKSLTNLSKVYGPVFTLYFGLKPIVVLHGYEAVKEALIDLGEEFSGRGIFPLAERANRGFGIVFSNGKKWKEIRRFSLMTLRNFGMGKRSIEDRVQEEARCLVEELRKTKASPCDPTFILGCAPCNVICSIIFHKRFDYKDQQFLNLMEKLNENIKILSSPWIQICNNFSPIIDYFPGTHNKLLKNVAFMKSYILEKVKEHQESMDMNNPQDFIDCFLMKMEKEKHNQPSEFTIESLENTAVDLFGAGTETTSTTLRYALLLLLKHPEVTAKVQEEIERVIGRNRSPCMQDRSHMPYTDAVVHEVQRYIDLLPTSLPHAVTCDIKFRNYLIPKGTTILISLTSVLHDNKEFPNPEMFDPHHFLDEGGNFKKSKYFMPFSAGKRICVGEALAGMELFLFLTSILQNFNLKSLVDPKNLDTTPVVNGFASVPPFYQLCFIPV

CCOC(=O)C1=C(O)/C(=C/c2cccc(OC)c2O)N=C1C
IC50 (Large T antigen): 16.4 µM (active)

CCC(C)N(C(=O)COC(=O)/C=C/c1ccc(O)c(OC)c1)C1CCS(=O)(=O)C1 (centres undefined)
IC50 (Large T antigen): 11.4 µM (active)

COc1ccccc1OCC(=O)NNC(=O)c1cnccn1
AC50 (Cytochrome P450 2C9): inconclusive | AC50 (Cytochrome P450 1A2): 17.8 µM (inconclusive) | EC50 [1]: > 53 µM (inactive) | IC50 [2]: > 47.1 µM (inactive)

COC(=O)CNc1c(-c2ccccc2)nc2ccc(Br)cn12
AC50 [3]: 1.08 µM (active)

COc1ccc([C@@]2(C(C)C)ON(c3ccccc3C(F)(F)F)C2=O)cc1
CC50 (Vero): > 25 µM (active)

COc1ccc(OC)c2nc(O)c(CCNC(=O)COc3ccccc3)cc12
AC50 (Cytochrome P450 2C9): inconclusive

CC1CCN(c2c([N+](=O)[O-])nn(-c3ccc4c(c3)OCCO4)[n+]2[O-])CC1
IC50 (Nonstructural protein 1): 58.9 µM (active) | EC50 [4]: 0.431 µM (active) | EC50 [5]: > 60 µM (not active)

COc1ccccc1NC(=O)CSc1n[nH]c(-c2ccccn2)n1
IC50 (Nonstructural protein 1): 6.84 µM (active)

COc1cccc(OCc2cc(C(=O)N3CCN(c4ccccc4OC)CC3)no2)c1
EC50 (cells [6]): 66.7 µM (active) | EC50 (cells [7]): > 350 µM (not active)

COC(=O)[C@H](CCSC)NC(=O)C/C=C\[C@@H](C)CO
AC50 (Cytochrome P450 2C9): inconclusive

COc1ccc(N(C(=O)c2ccncc2)S(=O)(=O)c2ccc(Cl)cc2)cc1
AC50 [8]: 0.354 µM (active)

Cc1ccc(C[S+]([O-])Cc2ccc(C(=O)N3CCN(c4ccccc4)CC3)o2)cc1 (centres undefined)
EC50 [4]: 7.61 µM (active) | EC50 [5]: 33.2 µM (active) | AC50 [3]: 5.92 µM (active) | EC50 [9]: > 300 µM (not active) | EC50 [10]: > 300 µM (not active)

O=S(=O)(/C=C/c1ccccc1)NC1CCCCCC1
AC50 [8]: 10.5 µM (active)

NS(=O)(=O)c1ccc(-c2ccc(C=C3C(=O)NC(=S)NC3=O)o2)cc1
IC50 (Large T antigen): 10.5 µM (active)

O=C(O)C1CSC(c2coc3ccccc3c2=O)N1 (centres undefined)
AC50 [3]: 0.083 µM (active)

O=C(Cc1cccs1)Nc1nnc(COc2ccccc2)s1
IC50 (Estrogen receptor): 37.3 µM (not active)

O=C(NCc1ccccc1)C(=O)c1cn(CC(=O)N2CCOCC2)c2ccccc12
EC50 (cells [6]): > 350 µM (not active) | EC50 (cells [7]): > 350 µM (not active)

COc1cccc(C2=NOC(C(=O)Nc3ccc(OC)c(OC)c3)C2)c1 (centres undefined)
AC50 (Cytochrome P450 2C9): inconclusive | AC50 (Cytochrome P450 2C19): 25.1 µM (inconclusive)

Cc1ccc(-c2nc(C#N)c(NCCN3CCCCC3)o2)cc1
AC50 [3]: 4.4 µM (active)

Cn1c(=O)c2cc(S(=O)(=O)NCCC(=O)N3CC=C(c4ccccc4)CC3)ccc2n(C)c1=O
AC50 (Cytochrome P450 2C9): inconclusive | AC50 (Cytochrome P450 2D6): 17.8 µM (inconclusive) | AC50 (Cytochrome P450 1A2): 31.6 µM (inconclusive) | AC50 (Cytochrome P450 2C19): 25.1 µM (inconclusive)

c1ccc(-n2cnc3cc(NCc4ccccn4)ccc32)cc1
AC50 [3]: 1.17 µM (active)

CC(C)OC(=O)c1cc2c(ccn2C)n1CC(=O)N(Cc1ccccc1)c1ccc(F)cc1
IC50 (Nonstructural protein 1): > 100 µM (active)

CCNc1ncc2ncc(=O)n(C3CC3)c2n1
AC50 (Cytochrome P450 2C9): inconclusive

COc1ccc(C2(C)NC(=O)NC2=O)cc1OC (centres undefined)
EC50 (cells [6]): 116 µM (active) | EC50 (cells [7]): > 350 µM (not active)

O=C(O)c1cscc1Cc1cccs1
AC50 (Cytochrome P450 2C9): inconclusive

O=C(O)c1ccccc1C(=O)Nc1ccc(-c2csc(-c3ccccc3)n2)cc1
AC50 [3]: 0.218 µM (active)

O=C(CSc1nc2cc(Cl)ccc2s1)NC(=O)NCc1ccco1
IC50 (Estrogen receptor): > 50 µM (not active)

C=CCNC(=O)c1onc(CSc2cc(C)ccc2C)c1C(=O)O
AC50 [3]: 4.81 µM (active)

COc1ccc(C(=O)Nc2ccc(Cl)cn2)cc1Cl
AC50 (Cytochrome P450 2C9): inconclusive

CN1CCC2(CC1)N=C(c1ccc(F)cc1)C(=S)N2C(=O)c1ccc(C(C)(C)C)cc1
EC50 (cells [6]): 73.9 µM (active) | EC50 (cells [7]): > 350 µM (not active)

C[C@@H]1CC[C@H](Cc2ccc(-n3cccc3)cc2)N1C(=O)OC(C)(C)C
CC50 (Vero): > 25 µM (active)

OCCOCCn1c(C2CCCN2c2nc(-c3ccc(F)cc3)cs2)nc2cc(C(F)(F)F)ccc21 (centres undefined)
AC50 [8]: 7.57 µM (active)

COc1ccc(Nc2nc(N/N=C/c3ccc(N(C)C)cc3)nc(C)c2[N+](=O)[O-])cc1
EC50 (cells [6]): > 350 µM (not active) | EC50 (cells [7]): > 350 µM (not active)

COc1ccc(/C=N/NC(=O)c2ccccc2O)cc1CSc1ccccn1
EC50 (cells [6]): > 350 µM (not active) | EC50 (cells [7]): > 350 µM (not active)

Cc1cccc(N2C(=O)C=CC2=O)c1
AC50 [8]: 1.63 µM (active)
